Laboratory results as given in publication PMC10967572, “Induction of Oxidative Stress and Ferroptosis in Triple-Negative Breast Cancer Cells by Niclosamide via Blockade of the Function and Expression of SLC38A5 and SLC7A11” (Antioxidants, 2024).
pIC50: −log10 of the molar value. Where a name gives a salt, the structure may show the parent alone. Residues, ends and D or L forms follow the SMILES beside them. *: point of attachment. Cbz = O=C(OCc1ccccc1)*; CH2F = FC*

Key:
[1] = target: SLC38A5 (Homo sapiens, UniProt Q8WUX1); assay: Inhibition of SLC38A5-mediated [3H]-serine uptake in TNBC cells; settings: IC50 for the inhibition of SLC38A5-mediated serine uptake, serine 5 μM, LiCl buffer pH 8.5 with 5 mM tryptophan
[2] = test system: SLC7A11; assay: SLC7A11 transport activity (glutamate uptake) after treatment of cells; assay type: cell-based, human; settings: MB231, TXBR100 and MB453 cells treated before uptake
Experimental: The transport activity of SLC7A11 was calculated by subtracting the diffusional component from total uptake. […] Confluent cultures were used for uptake measurements.

[3] = test system: Nrf2; assay: Nrf2 expression and subcellular localization (immunostaining, Western blot, qRT-PCR) in TNBC cells; assay type: cell-based, human; settings: MB231 and TXBR100; 24 h; Se-Met 250 μM and 1 mM, monomethylfumarate 0.1 mM; immunostaining and Western blot
Experimental: (§1) Total RNA was extracted from cells using TRIzol Reagent (ThermoFisher Scientific, Waltham, MA, USA) and the RNA was reverse-transcribed using a high-capacity cDNA reverse transcription kit (ThermoFisher Scientific, Waltham, MA, USA) according to the manufacturer’s protocol. Quantitative RT-PCR was performed with Takara Taq Hot Start Version (TaKaRa Biotechnology, Shiga, Japan) or Power SYBR Green PCR master mix (Bio-Rad, Hercules, CA, USA). Primer sequences are shown in Supplemental Table S1. The relative mRNA expression was determined by the 2^−∆∆Ct method. Additionally, 18S was used as a housekeeping gene for normalization.
Cells and tumor tissues were lysed in Pierce™ RIPA buffer (ThermoFisher Scientific, Waltham, MA, USA) supplemented with Halt™ Protease and Phosphatase Inhibitor Cocktail (ThermoFisher Scientific, Waltham, MA, USA). Homogenates were centrifuged, and supernatants were used for protein measurement via Pierce™ BCA Protein Assay Kit (ThermoFisher Scientific, Waltham, MA, USA). […] Western blot samples were prepared in Laemmli sample buffer (Bio-Rad Laboratories, Hercules, CA, USA). They were loaded onto a SDS–PAGE gel and transferred onto a PVDF membrane (Bio-Rad Laboratories, Hercules, CA, USA). The membrane was blocked and antibodies diluted in 5% nonfat dry milk (Bio-Rad Laboratories, Hercules, CA, USA) or in 5% bovine serum albumin (Irvine Scientific, Santa Ana, CA, USA) were used. Protein bands were visualized using Pierce™ ECL Western Blotting Substrate (ThermoFisher Scientific, Waltham, MA, USA) and developed on the autoradiography film (Santa Cruz, Dallas, TX, USA). Primary antibodies were purchased either from Cell Signaling (Danvers, MA, USA) [anti-GPX4 (#52455), anti-FTH (#4393), anti-HSP60 (#12165), anti-phospho-p70S6K (#9205), anti-p70S6K (#2708)] or from Abcam (Waltham, MA, USA) [Nrf2 (#ab62352)]. Secondary antibody Horseradish peroxidase-conjugated goat anti-rabbit IgG (#1706515) was purchased from Bio-Rad Laboratories (Hercules, CA, USA). For quantification of protein levels by the densitometric analysis, the experiment was carried out in triplicate and the data were collected from the resultant three Western blots.

[4] = test system: Nrf2 target genes (SLC7A11, HO-1, GCLC, GCLM); assay: qRT-PCR of Nrf2 target genes in TNBC cells; assay type: cell-based, human; settings: MB231, TXBR100 and MB453, Se-Met 1 mM, 16 h
Experimental: as §1

[5] = test system: TNBC cells (MB231 and TXBR100); assay: MTT cell proliferation / viability assay; assay type: cell-based, human; settings: niclosamide 1 μM with inhibitor 10 μM (hydroxychloroquine 25 μM), 48 h
Experimental: Cells were seeded in 96-well plates; after 24 h, niclosamide treatment was initiated. Cells were then cultured for 72 h with fresh medium containing freshly prepared niclosamide supplied every 24 h. Cells were washed with phosphate-buffered saline twice followed by MTT reagent (ATCC). Treatment and lysis of the cells were done as per the manufacturer’s instructions. Absorbance of the lysate was measured at 550 nm. Cell viability assay with various cell-death inhibitors was also performed as described above. Cells were treated with niclosamide (1 µM) along with cell death inhibitors (10 µM), except hydroxychloroquine (25 µM) for 48 h.

[6] = test system: MB231 cells and TXBR100 cells; assay: Lipid radical (ferroptosis) assay with LipiRadical Green; assay type: cell-based, human; settings: inhibitor 10 μM with niclosamide 5 μM; MB231 and TXBR100
Experimental: Lipid radical (ferroptosis) assay and iron assay were performed as follows. Cells were cultured on a 25 mm glass coverslip until they reached 60–70% confluency (~48 h). At the time of the experiment, cells were washed with NaCl buffer, pH 7.5 and then incubated with 1 µM of LipiRadical Green (a lipid radical detection reagent, FDV-0042, Funakoshi, Tokyo, Japan) or Ferro-orange (an iron detection probe, F374, Dojindo, Rockville, MD, USA) in NaCl buffer, pH 7.5 for 20 min and then washed with NaCl buffer, pH 7.5. To analyze the effects of modifiers of iron levels and lipid peroxidation, the cells were co-treated with the modifiers and the respective fluorescent probe for 20 min and then washed. The glass coverslip containing the cells was then probed under an inverted microscope. The fluorescence imaging was captured using a Nikon T1-E microscope with A1 confocal super-resolution module (Nikon, Dallas, TX, USA), with a 60× objective, at 488 nm. The images represent a maximum projection intensity derived from a Z-stack. The fluorescence quantification was performed by measuring the corrected total cell fluorescence (CTCF) using Image J (version: 2.14.0/1.54f) and the following formula; CTCF = (integrated density) − (area of cell of interest) × (mean fluorescence of background).

[7] = test system: MB231 cells and TXBR100 cells; assay: Cellular glutathione levels (GSH-Glo assay); assay type: cell-based, human; settings: Homo sapiens; buthionine sulfoximine 100 μM; both cell lines (MB231, TXBR100)
Experimental: Control and niclosamide-treated cells were used for measurement of cellular glutathione levels as instructed in the manufacturer’s protocol (GSH-Glo assay, Promega, Madison, WI, USA). The levels of malondialdehyde were measured using lipid peroxidation kit [Lipid Peroxidation (MDA) Assay Kit (MAK085), Millipore-sigma, St. Louis, MO, USA].

[8] = test system: SLC38A5; design: method as in PMID 11243884, PMID 37812701; settings: cited from earlier work

Chain of SLC38A5 (Homo sapiens, UniProt Q8WUX1) (Q8WUX1 whole entry): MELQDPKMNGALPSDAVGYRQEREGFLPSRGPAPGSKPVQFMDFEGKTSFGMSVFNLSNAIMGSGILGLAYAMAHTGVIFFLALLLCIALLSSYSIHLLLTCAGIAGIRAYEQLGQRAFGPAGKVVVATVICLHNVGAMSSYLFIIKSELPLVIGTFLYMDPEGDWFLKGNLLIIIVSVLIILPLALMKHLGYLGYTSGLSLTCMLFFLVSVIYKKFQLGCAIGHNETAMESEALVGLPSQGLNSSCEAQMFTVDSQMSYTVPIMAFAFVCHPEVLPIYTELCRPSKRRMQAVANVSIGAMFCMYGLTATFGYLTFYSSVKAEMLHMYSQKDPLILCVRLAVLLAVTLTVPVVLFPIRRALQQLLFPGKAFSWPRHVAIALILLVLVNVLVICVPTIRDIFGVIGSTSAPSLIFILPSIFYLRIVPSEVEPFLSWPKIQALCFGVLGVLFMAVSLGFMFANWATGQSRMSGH

Structure (SMILES)	transport activity of SLC7A11 (glutamate uptake) in treated cells [2]	cellular levels and nuclear localization of Nrf2 [3]	effect of cell death inhibitor on cell viability in the presence of niclosamide [5]	effect of cell death inhibitor on niclosamide-induced increase in lipid radical fluorescence [6]	other results
C[Se]CC[C@H](N)C(=O)O [Se-Met, seleno-methionine]	increased substantially	increased	–	–	pIC50 ([1]; MB231 cells): 3.17; pIC50 ([1]; TXBR100 cells): 3.34; mRNA levels for Nrf2 targets SLC7A11, HO-1, GCLC and GCLM [4]: significant increase
COC(=O)C[C@H](NC(=O)[C@H](C)NC(=O)[C@@H](NC(=O)OCc1ccccc1)C(C)C)C(=O)CF [ZVAD-fmk] (Cbz-Val-Ala-Asp(OMe)-CH2F)	–	–	failed to promote cell viability	did not have any effect	–
CCCCS(=N)(=O)CCC(N)C(=O)O (centres unmarked) [buthionine sulfoximine]	–	–	–	–	inhibition at 100 µM [7]: ~90%
CCOC(=O)c1ccc(NC2CCCCC2)c(N)c1 [ferrostatin 1, ferrostatin-1]	–	–	improved cell viability	blocked this increase	–
CCN(CCO)CCCC(C)Nc1ccnc2cc(Cl)ccc12 (centres unmarked) [hydroxychloroquine]	–	–	failed to promote cell viability	–	–
CSCC[C@H](N)C(=O)O [methionine]	did not have any effect	did not have any noticeable effect	–	–	pIC50 ([1]; MB231 cells): 3.29; pIC50 ([1]; TXBR100 cells): 3.50
COC(=O)/C=C/C(=O)O [monomethylfumarate, monomethyl fumarate]	stimulatory effect	increased	–	–	–
CN1C(=O)C(Cc2c[nH]c3ccccc23)NC1=S (centres unmarked) [necrostatin, necrostatin-1]	–	–	failed to promote cell viability	did not have any effect	–
N[C@@H](CO)C(=O)O [serine]	–	–	–	–	Kt value for SLC38A5-mediated transport [8]: 200 to 1300 µM
